Laboratory results reported in US11464770B2, “Anticancer pharmaceutical composition” (NATIONAL CANCER CENTER, priority 2016, dated 2022).
Where two headings read alike, the source gives them in different places.

Legend:
brain cancer cell lines = assay: Cell based assay, cell viability (CellTiter-Glo), brain cancer cell lines; conditions: Homo sapiens
Description: Commercially available bladder cancer, prostate cancer, lung cancer, breast cancer, blood cancer, pancreatic cancer, colorectal cancer, brain cancer, neuroblastoma, melanoma, liver cancer, cervical carcinoma, ovarian cancer, renal cancer, and papilloma cell lines were each treated with trypsin-EDTA and cultured, followed by being seeded in each well of a 96 well plate. […] The treated cells were additionally cultured for 72 hours, and cell viability was measured by using an ATP detection method (CellTiter-Glo® Luminescent Cell Viability Assay, Promega).

[1] = test system: prostate cancer cell lines (e.g. DU145/TXR); assay: Cell based assay, cell viability (CellTiter-Glo), prostate cancer cell lines; conditions: Homo sapiens, 72 hours treatment, final concentration 0 to 2 μM
Description: Commercially available bladder cancer, prostate cancer, lung cancer, breast cancer, blood cancer, pancreatic cancer, colorectal cancer, brain cancer, neuroblastoma, melanoma, liver cancer, cervical carcinoma, ovarian cancer, renal cancer, and papilloma cell lines were each treated with trypsin-EDTA and cultured, followed by being seeded in each well of a 96 well plate. After 24 hours of treatment at constant temperature, the respective cells were treated with the candidate compound so that a final concentration became 0 to 2 μM. The treated cells were additionally cultured for 72 hours, and cell viability was measured by using an ATP detection method (CellTiter-Glo® Luminescent Cell Viability Assay, Promega).

[2] = U138-MG, U-138 MG cell line, read-out: IC50, Brain cancer cell line U-138 MG
[3] = T98G cell line, read-out: IC50, Brain cancer cell line T98G
[4] = U-251 MG cell line, read-out: IC50, Brain cancer cell line U-251 MG
[5] = CWR22 cells, read-out: IC50, prostate cancer cell line CWR22
[6] = DU-145, DU145/TXR cells, read-out: IC50, prostate cancer cell line DU145/TXR
[7] = DU-145, DU145 cells, read-out: IC50, prostate cancer cell line DU145
[8] = LNcap cells, read-out: IC50, prostate cancer cell line LNcap
[9] = PC-3 cells, read-out: IC50, prostate cancer cell line PC-3

| Compound | IC50 (brain cancer cell lines; [2]) | IC50 (brain cancer cell lines; [3]) | IC50 (brain cancer cell lines; [4]) | IC50 [1, 5] | IC50 [1, 6] | IC50 [1, 7] | IC50 [1, 8] | IC50 [1, 9] |
| --- | --- | --- | --- | --- | --- | --- | --- | --- |
| CSc1c(C(C)=O)c(=O)c2c(Cl)ccc(Br)c2n1S(=O)(=O)c1ccc([N+](=O)[O-])cc1 [Compound 38, 3-acetyl-8-bromo-5-chloro-2-(methylthio)-1-((4-nitrophenyl)sulfonyl)quinolin-4(1H)-one] | > 10 µM | > 10 µM | > 2 µM | > 2 µM | > 2 µM | > 2 µM | > 2 µM | > 2 µM |
| CCS(=O)(=O)n1c([S+](C)[O-])c(C(C)=O)c(=O)c2c(Cl)ccc(Br)c21 (centres unmarked) [Compound 39, 3-acetyl-8-bromo-5-chloro-1-(ethylsulfonyl)-2-(methylsulfinyl)quinolin-4(1H)-one] | > 10 µM | > 10 µM | > 2 µM | > 2 µM | > 2 µM | > 2 µM | > 2 µM | > 2 µM |
| CSc1c(C(C)=O)c(=O)c2c(Cl)ccc(Br)c2n1S(=O)(=O)c1ccc(C(C)(C)C)cc1 [Compound 40, 3-acetyl-8-bromo-1-((4-(tert-butyl)phenyl)sulfonyl)-5-chloro-2-(methylthio)quinolin-4(1H)-one] | > 10 µM | > 10 µM | > 2 µM | > 2 µM | > 2 µM | > 2 µM | > 2 µM | > 2 µM |
| CC(=O)c1c(S(C)(=O)=O)n(S(=O)(=O)c2ccc(C(C)(C)C)cc2)c2c(Br)ccc(Cl)c2c1=O [Compound 41, 3-acetyl-8-bromo-1-((4-(tert-butyl)phenyl)sulfonyl)-5-chloro-2-(methylsulfonyl)quinolin-4(1H)-one] | > 10 µM | > 10 µM | > 2 µM | > 2 µM | > 2 µM | > 2 µM | > 2 µM | > 2 µM |
| CC(=O)c1c(SCc2cc(Cl)ccc2Cl)[nH]c2c(Br)ccc(Cl)c2c1=O [Compound 43, 3-acetyl-8-bromo-5-chloro-2-((2,5-dichlorobenzyl)thio)quinolin-4(1H)-one] | > 10 µM | > 10 µM | > 2 µM | > 2 µM | > 2 µM | > 2 µM | > 2 µM | > 2 µM |
| CC(=O)c1c(SCc2cc(F)cc(F)c2)[nH]c2c(Br)ccc(Cl)c2c1=O [Compound 45, 3-acetyl-8-bromo-5-chloro-2-((3,5-difluorobenzyl)thio)quinolin-4(1H)-one] | > 10 µM | > 10 µM | > 2 µM | > 2 µM | > 2 µM | > 2 µM | > 2 µM | > 2 µM |
| CC(=O)c1c(SCc2cccc(I)c2)[nH]c2c(Br)ccc(Cl)c2c1=O [Compound 47, 3-acetyl-8-bromo-5-chloro-2-((3-iodobenzyl)thio)quinolin-4(1H)-one] | > 10 µM | > 10 µM | > 2 µM | > 2 µM | > 2 µM | > 2 µM | > 2 µM | > 2 µM |
| CC(=O)c1c(SCc2cccc(F)c2)[nH]c2c(Br)ccc(Cl)c2c1=O [Compound 49, 3-acetyl-8-bromo-5-chloro-2-((3-fluorobenzyl)thio)quinolin-4(1H)-one] | > 10 µM | > 10 µM | > 2 µM | > 2 µM | > 2 µM | > 2 µM | > 2 µM | > 2 µM |
| CC(=O)c1c(SCc2ccccc2)nc2c(Br)ccc(Cl)c2c1O [Compound 52, 1-(2-(benzylthio)-8-bromo-5-chloro-4-hydroxyquinolin-3-yl)ethan-1-one] | > 10 µM | > 10 µM | > 2 µM | > 2 µM | > 2 µM | > 2 µM | > 2 µM | > 2 µM |
| CC(=O)c1c([S+]([O-])Cc2ccccc2)nc2c(Br)ccc(Cl)c2c1O (centres unmarked) [Compound 53, 1-(2-(benzylsulfinyl)-8-bromo-5-chloro-4-hydroxyquinolin-3-yl)ethan-1-one] | > 10 µM | > 10 µM | > 2 µM | > 2 µM | > 2 µM | > 2 µM | > 2 µM | – |
| CC(=O)c1c(S(=O)(=O)Cc2ccccc2)nc2c(Br)ccc(Cl)c2c1O [Compound 54, 1-(2-(benzylsulfonyl)-8-bromo-5-chloro-4-hydroxyquinolin-3-yl)ethan-1-one] | > 10 µM | > 10 µM | > 2 µM | > 2 µM | > 2 µM | > 2 µM | > 2 µM | > 2 µM |
| COCSc1[nH]c2c(Br)ccc(Cl)c2c(=O)c1C(C)=O [Compound 61, 3-acetyl-8-bromo-5-chloro-2-((methoxymethyl)thio)quinolin-4(1H)-one] | > 10 µM | > 10 µM | > 2 µM | > 2 µM | > 2 µM | > 2 µM | > 2 µM | > 2 µM |
| CC(=O)c1c(S)[nH]c2c(Br)ccc(Cl)c2c1=O [Compound 62, 3-acetyl-8-bromo-5-chloro-2-mercaptoquinolin-4(1H)-one] | > 10 µM | > 10 µM | > 2 µM | > 2 µM | > 2 µM | > 2 µM | > 2 µM | > 2 µM |
| CC(=O)c1c([S+]([O-])CC#N)[nH]c2c(Br)ccc(Cl)c2c1=O (centres unmarked) [Compound 65, 2-((3-acetyl-8-bromo-5-chloro-4-oxo-1,4-dihydroquinolin-2-yl)sulfinyl)acetonitrile] | > 10 µM | > 10 µM | > 2 µM | > 2 µM | > 2 µM | > 2 µM | > 2 µM | > 2 µM |

Next, values leading:

| IC50 (brain cancer cell lines; [2]) | IC50 (brain cancer cell lines; [3]) | IC50 (brain cancer cell lines; [4]) | IC50 [1, 5] | IC50 [1, 6] | IC50 [1, 7] | IC50 [1, 8] | IC50 [1, 9] | Compound |
| --- | --- | --- | --- | --- | --- | --- | --- | --- |
| > 10 µM | > 10 µM | > 2 µM | > 2 µM | > 2 µM | > 2 µM | > 2 µM | > 2 µM | CC(=O)c1c(SCc2cccc(C#N)c2)[nH]c2c(Br)ccc(Cl)c2c1=O [Compound 27, 3-(((3-acetyl-8-bromo-5-chloro-4-oxo-1,4-dihydroquinolin-2-yl)thio)methyl)benzonitrile] |
| 1.26 µM | > 10 µM | 0.88 µM | 1.07 µM | 1.01 µM | 1.28 µM | 1.34 µM | 1.16 µM | CC(=O)c1c([S+]([O-])Cc2cccc(C#N)c2)[nH]c2c(Br)ccc(Cl)c2c1=O (centres unmarked) [Compound 28, 3-(((3-acetyl-8-bromo-5-chloro-4-oxo-1,4-dihydroquinolin-2-yl)sulfinyl)methyl)benzonitrile] |
| > 10 µM | > 10 µM | > 2 µM | > 2 µM | > 2 µM | > 2 µM | > 2 µM | > 2 µM | CC(=O)c1c(SCc2ccc(F)c(Cl)c2)[nH]c2c(Br)ccc(Cl)c2c1=O [Compound 30, 3-acetyl-8-bromo-5-chloro-2-((3-chloro-4-fluorobenzyl)thio)quinolin-4(1H)-one] |
| > 10 µM | > 10 µM | > 2 µM | > 2 µM | > 2 µM | > 2 µM | > 2 µM | > 2 µM | CC(=O)c1c(SCc2ccc([N+](=O)[O-])cc2)[nH]c2c(Br)ccc(Cl)c2c1=O [Compound 32, 3-acetyl-8-bromo-5-chloro-2-((4-nitrobenzyl)thio)quinolin-4(1H)-one] |
| > 10 µM | > 10 µM | > 2 µM | > 2 µM | > 2 µM | > 2 µM | > 2 µM | > 2 µM | CSc1c(C(C)=O)c(=O)c2c(Cl)ccc(Br)c2n1S(C)(=O)=O [Compound 35, 3-acetyl-8-bromo-5-chloro-1-(methylsulfonyl)-2-(methylthio)quinolin-4(1H)-one] |
| > 2 µM | > 10 µM | > 2 µM | > 2 µM | > 2 µM | > 2 µM | > 2 µM | > 2 µM | CC(=O)c1c([S+](C)[O-])n(S(=O)(=O)C(F)(F)F)c2c(Br)ccc(Cl)c2c1=O (centres unmarked) [Compound 36, 3-acetyl-8-bromo-5-chloro-2-(methylsulfinyl)-1-((trifluoromethyl)sulfonyl)quinolin-4(1H)-one] |
| > 10 µM | > 10 µM | > 2 µM | > 2 µM | > 2 µM | > 2 µM | > 2 µM | > 2 µM | CSc1c(C(C)=O)c(=O)c2c(Cl)ccc(Br)c2n1S(=O)(=O)c1ccc(Cl)cc1 [Compound 37, 3-acetyl-8-bromo-5-chloro-1-((4-chlorophenyl)sulfonyl)-2-(methylthio)quinolin-4(1H)-one] |
| > 2 µM | > 10 µM | > 2 µM | > 2 µM | > 2 µM | > 2 µM | > 2 µM | > 2 µM | CC(=O)c1c([S+](C)[O-])n(S(=O)(=O)c2ccc(C(C)(C)C)cc2)c2c(Br)ccc(Cl)c2c1=O (centres unmarked) [Compound 42, 3-acetyl-8-bromo-1-((4-(tert-butyl)phenyl)sulfonyl)-5-chloro-2-(methylsulfinyl)quinolin-4(1H)-one] |
| > 2 µM | > 10 µM | > 2 µM | > 2 µM | 1.57 µM | > 2 µM | > 2 µM | – | CC(=O)c1c([S+]([O-])Cc2cccc(I)c2)[nH]c2c(Br)ccc(Cl)c2c1=O (centres unmarked) [Compound 48, 3-acetyl-8-bromo-5-chloro-2-((3-iodobenzyl)sulfinyl)quinolin-4(1H)-one] |
| 1.46 µM | > 10 µM | 0.84 µM | 1.2 µM | 1.21 µM | 1.23 µM | 1.44 µM | 1.3 µM | CC(=O)c1c([S+]([O-])Cc2ccccc2C#N)[nH]c2c(Br)ccc(Cl)c2c1=O (centres unmarked) [Compound 58, 2-(((3-acetyl-8-bromo-5-chloro-4-oxo-1,4-dihydroquinolin-2-yl)sulfinyl)methyl)benzonitrile] |
| > 2 µM | > 10 µM | > 2 µM | > 2 µM | > 2 µM | > 2 µM | > 2 µM | – | CC(=O)c1c([S+]([O-])Cc2ccc(C(=O)c3ccccc3)cc2)[nH]c2c(Br)ccc(Cl)c2c1=O (centres unmarked) [Compound 63, 3-acetyl-2-((4-benzoylbenzyl)sulfinyl)-8-bromo-5-chloroquinolin-4(1H)-one] |
